Measurements from patent US8449923B2, “Methods for inhibiting sensory nerves by topically administering strontium-containing compositions to keratinized skin” (Cosmederm Bioscience, Inc., priority 1994, dated 2013).
Where two headings read alike, the source gives them in different places.

Columns and labels:
[1] = system: skin irritation induced by lactic acid (face); test: Lactic acid irritation trial, pretreatment test (anti-irritant applied 15 minutes before irritant); format: in vivo, human; conditions: pretreatment tests; for Percent Inhibition (average inhibition of cumulative irritation): cation salt 250 mM, lactic acid irritant; for Percent Inhibition: representative subject panels, 250 mM, vehicle VIS DIFFERENCE
Experimental: (§1) The majority of the trials were conducted using lactic acid as the skin irritant, and proceeded generally as follows.
(§2) Tests were conducted in multiple panels of from 7 to 12 subjects each. Subjects were instructed not to wear any makeup or facial lotions to the clinic the day of testing. The subjects were instructed to wash their face with Ivory bar soap in the clinic prior to application of test solutions.
(§3) Lactic acid skin-irritant compositions were formulated in an appropriate vehicle prior to application to the skin of the subjects.
(§4) Test anti-irritant formulations containing measured amounts of strontium salts (concentration 250 mM) were applied either (a) 15 minutes prior to application to the skin of the skin-irritant (“pretreatment test”) or (B) simultaneously with the application of the skin-irritant (“time zero test”). […] Controls were performed by applying corresponding formulation(s) (pretreatment and/or skin-irritant composition) with an equimolar amount of sodium chloride to a contralateral portion of the subject's skin. Typically, the test materials were applied to the face of the subject.
(§5) All test solutions (including controls) were applied in a double blind, randomized fashion using the prepared solutions as previously placed in coded vial designated for use on either the right or left side of the face (or other test area). Solutions were typically applied using a cotton swab (six strokes) or sponge applicator to the face and cheek area extending from the midline of the nose over to the center of the cheek and from the cheek bone down to the jaw line. Application was made first to the right side and then to the left.
(§6) Sensory assessment scores were recorded for each treated side of the subject's skin every minute for 15 minutes or until three consecutive scores of “zero” irritation were obtained. The following scaled scores were used for sensory assessment:
(§7) Symptom scores were cumulated, separately for the cation-treated and control-treated areas, for each individual and also for the panel as a whole. Individuals not reporting a cumulative score of at least “7” on at least one treatment area were excluded (in a blinded fashion) from further analysis in order to ascertain anti-irritant efficacy with respect to the more severely-susceptible test subjects. From a practical standpoint, scores of “0” and “1” on the above scale would be considered highly desirable for a commercial product because such a response would likely not result in a consumer ceasing to use a product. Some consumers, in fact, might view the “barely perceptible” sensations represented by a score of 1 to be an indication that a facial treatment skin care product (especially an exfoliant) was working as advertised. By contrast, irritation scores of “2”, “3” and “4” would likely often result in a consumer never purchasing the product again.

[2] = system: skin irritation induced by lactic acid (face); test: Lactic acid irritation trial, time zero test (anti-irritant applied simultaneously with irritant); format: in vivo, human; conditions: for Percent Inhibition (average inhibition of cumulative irritation) / Percent Inhibition: time zero tests; for Percent Inhibition (average inhibition of cumulative irritation): cation salt 250 mM, lactic acid irritant; for Percent Inhibition: representative subject panels, vehicle 10% EtOH
Experimental: as §1, §2, §3, §4, §5, §6, §7

[3] = system: skin irritation induced by lactic acid
Experimental: Additional studies of anti-irritant activity using varying concentrations of strontium cations were conducted in order to assess the dose-response behavior of the present formulations. The lactic acid irritation protocol described above was used, in which the anti-irritant cation component was strontium nitrate (31-500 mM).

[4] = system: irritation induced by capsaicin; conditions: 250 mM; capsaicin challenge; pretreatment
Description: The test compounds of the invention were formulated in Elizabeth Arden “Visible Difference Refining Toner”, with the Toner mixed with equimolar sodium chloride serving as the control. The test solutions (and control) were provided in coded vials for application to either the right or left arms. A template (1.5 in.×4.0 in.) was placed on each forearm to mark the challenge area. The pre-treatment solutions containing the anti-irritant cation of the invention were applied to extend 1 inch beyond the marked challenge area in all directions and were allowed to dry for 5 minutes. 0.5 ml of 0.15% capsaicin cream or a swab moistened with capsaicin solution was thereafter applied to each arm by the clinical technician, who rubbed in the cream using gloved fingers. Application and scoring of test and control formulations was performed sequentially for each arm. Scoring was recorded every minute starting at 5 minutes post-application for 10 minutes and then every 5 minutes for 15 minutes (30 minutes total) for the cream, and every minute starting immediately for 15 minutes for the solution. Assessment was made using the irritation scale described above for the lactic acid test, and a simultaneous visual assessment of erythema was made by the monitoring technician.

Structure (SMILES) | Percent Inhibition (average inhibition of cumulative irritation) [1] | Percent Inhibition [1] | Percent Inhibition (average inhibition of cumulative irritation) [2] | Percent Inhibition ([2]; 250 mM) | Percent Inhibition (cumulative irritation) ([3]; concentration 31 mM) | Percent Inhibition (cumulative irritation) ([3]; concentration 62 mM) | Percent Inhibition (cumulative irritation) ([3]; concentration 125 mM) | Percent Inhibition (cumulative irritation) ([3]; concentration 250 mM) | Percent Inhibition (cumulative irritation) ([3]; concentration 500 mM) | overall efficacy in one panel (FIGS. 1-4) ([2]; 250 mM, time zero test, one panel) | overall efficacy in one representative panel (FIGS. 5-8) [4]
CC(=O)[O-].CC(=O)[O-].[Sr+2] [Strontium acetate] | 46% | 46% |  |  |  |  |  |  |  |  | 
[Cl-].[Cl-].[Sr+2] [Strontium chloride] | 25% | 20% | 60% | 58% |  |  |  |  |  |  | 
O=[N+]([O-])[O-].O=[N+]([O-])[O-].[Sr+2] [Strontium nitrate] | 50% | 56% | 65% | 64% | 77% | 32% | 42% | 72% | 82% | the overall efficacy of the subject formulation is clear | the overall efficacy of the subject formulation is evident
